Reference: patent US11058700B2, “Macrocyclic lactones and uses thereof as modulators of purinergic receptors” (City of Hope, priority 2015, dated 2021)
Where a SMILES comes first, the peptide text is derived from it. The star is where a group is joined. Cbz = O=C(OCc1ccccc1)*; CH2F = FC*

Tests used:
Type in all cases: cell-based, mouse
4T1.2 shRNA (P2X7) = assay: Synergy between Ivermectin and ATP (CI), P2X7 knockdown cells
Experimental: (§1) FIGS. 5A-5E. CaMKII-independent P2X7-mediated killing. FIG. 5A: qPCR showing the extent of gene knockdown in 4T1.2 cells transfected with shRNA targeting the P2X7 receptor versus non-targeting (NT) control (left panel). […] One million wt, shRNA(NT) and shRNA(P2X7) 4T1.2 cells were plated and incubated for 48 h before evaluation of cell numbers and viability. FIG. 5B: P2X7 knockdown cells are more resistant to ATP and the ATP/IVM combo. 4T1.2 cells were treated for 24 h with 1-3 mM ATP, 6-10 μM Ivermectin, or combinations of ATP and Ivermectin. P2X7 knockdown suppresses the synergy between Ivermectin and high dose ATP, as shown by calculation of combination index (CI) values, see Table 2. FIG. 5C: P2X7 knockdown cells are resistant to ATP/Ivermectin induced membrane permeabilization (Asterisk (*) indicates p<0.05). […] FIG. 5E: Comparison of the protective effects of P2X7, CaMKII, and NADPH oxidases inhibition in short-term (4 h, 32 μM IVM) and long-term (24 h, 12 μM IVM) exposure of 4T1.2 cells to Ivermectin. Asterisk (*) indicates p<0.05 relative to Ivermectin alone controls.
(§2) Cell viability. Cancer cells were plated on 96 well flat-bottom plates and allowed to attach overnight. Cells were then pre-incubated with drugs for 1 h and treated with Ivermectin for 4 h. In the case of 24 h and 48 h incubations the cells, Ivermectin and drugs were plated together. All treatments and controls were done in triplicate wells and results were validated in at least two independent experiments. Following treatment the plates were washed once with PBS and cell viability was measured using the acid phosphatase assay. Briefly, cells were incubated for 1h at 37° C. in 100 μL assay buffer (0.16 M sodium acetate, 0.1% Triton-X-100, supplemented with 4-Nitrophenyl phosphate disodium salt hexahydrate, Sigma Aldrich, at 0.00263 g/ml). Reaction was stopped using 10 μL of 1N sodium hydroxide. Absorption at 405 nm was measured within 10 min using a multi-well plate reader. Mode of cell death and viability of cells in suspension was evaluated using flow cytometry. Briefly, cancer cells were pre-incubated with drugs for 30 min to 1 h, as indicated, treated with Ivermectin for 4 h in 5 ml FACS tubes , washed twice in PBS and stained with PE-conjugated Annexin V and 7AAD (1 μl per 100 μl/200,000 cancer cells) for 15 min.
(§3) Generation of P2X7 receptor knockdown 4T1.2 cells. 4T1.2 cells were transduced using Sigma mission shRNA lentiviral transduction particle with four P2X7 shRNA (NM_011027/TRCN0000068568, NM_011027/TRCN0000068570, NM_011027/TRCN0000068571, NM_011027/TRCN0000068572) or Non-Target control (SHC002V). The viral particles were added to growing cells in the presence of […] POLYBRENE® (Sigma, St Louis, Mo.), and incubated overnight at 37° C. Puromycin selection (2000 ng/ml) was done from third day onwards to select for stably transformed cells.

4T1.2 shRNA (NT) = assay: Synergy between Ivermectin and ATP (CI), non-targeting control cells
Experimental: as §1, §2, §3

4T1.2 cells = assay: Cell viability (acid phosphatase assay) of cancer cells treated with Ivermectin; conditions: cells treated with Ivermectin (32 μM, 4 h in figure legends) in the presence of the agent
Experimental: as §2

4T1.2 cancer cells = assay: Synergy between Ivermectin and ROS (CompuSyn CI); conditions: 4T1.2, 24 h/48 h
Experimental: FIGS. 2A-2C. Role of NADPH oxidases-generated ROS. […] 4T1.2 cells were labeled with a ROS detection probe and treated for 1 h with 32 μM Ivermectin in the presence of 1 mM EDTA, 5mM NAC, 5 μM DPI, 2500 μunits/ml Apyrase, 3 mM ATP, and 10 μM KN-62. […] Triangles (▴) indicate significant antagonism CI>1.0. […] 4T1.2 cancer cells were irradiated (10-20 kRad) or treated with H2O2 (10-1000 μM), PTX (0.1-1 μM), or DOX (1-4 μM) and incubated with Ivermectin for 24 h/48 h. Circles (●) indicate significant synergy CI<1.0, see Table 1. Asterisk (*) indicates p<0.05 relative to untreated or Ivermectin alone controls, respectively.
as §2, with “All treatments and controls were done in triplicate wells and results were validated in at least two independent experiments.” left out

[1] = system: murine and human TNBC cells; assay: Reactive oxygen species
Experimental: Reactive oxygen and nitrogen species. Cancer cells in suspension were washed with PBS and loaded with 50 μM H2DCFDA (Molecular Probes, Life Technologies, D399) or 5 μM DAF-2 (Cayman Chemical, Catalog #85165) for 30 min at room temperature in the dark. Cells were washed twice with PBS and treated with various doses of Ivermectin in R10 medium. Cells were incubated for 1h in 5 ml FACS tubes at 37° C. and 5% CO2, and immediately analyzed by flow cytometry. Generation of intracellular ROS and NO results in corresponding increases in the GFP fluorescence of the H2DCFDA and DAF-2 probes, respectively.

Nc1ncnc2c1ncn2[C@@H]1O[C@H](COP(=O)(O)OP(=O)(O)OP(=O)(O)O)[C@@H](O)[C@H]1O [ATP, adenosine triphosphate]
CI values (4T1.2 shRNA (P2X7); ATP 1 + I 6, 24 h): 1.49
CI values (4T1.2 shRNA (P2X7); ATP 1 + I 8, 24 h): 1.39
CI values (4T1.2 shRNA (P2X7); ATP 1 + I 10, 24 h): 1.35
CI values (4T1.2 shRNA (P2X7); ATP 2 + I 6, 24 h): 1.18
CI values (4T1.2 shRNA (P2X7); ATP 2 + I 8, 24 h): 1.03
CI values (4T1.2 shRNA (P2X7); ATP 2 + I 10, 24 h): 1.11
CI values (4T1.2 shRNA (P2X7); ATP 3 + I 6, 24 h): 0.96
CI values (4T1.2 shRNA (P2X7); ATP 3 + I 8, 24 h): 0.91
CI values (4T1.2 shRNA (P2X7); ATP 3 + I 10, 24 h): 0.86
CI values (4T1.2 shRNA (NT); ATP 1 + I 6, 24 h): 1.18
CI values (4T1.2 shRNA (NT); ATP 1 + I 8, 24 h): 1.01
CI values (4T1.2 shRNA (NT); ATP 1 + I 10, 24 h): 1.24
CI values (4T1.2 shRNA (NT); ATP 2 + I 6, 24 h): 1.17
CI values (4T1.2 shRNA (NT); ATP 2 + I 8, 24 h): 1.01
CI values (4T1.2 shRNA (NT); ATP 2 + I 10, 24 h): 1.10
CI values (4T1.2 shRNA (NT); ATP 3 + I 6, 24 h): 0.67
CI values (4T1.2 shRNA (NT); ATP 3 + I 8, 24 h): 0.64
CI values (4T1.2 shRNA (NT); ATP 3 + I 10, 24 h): 0.63

CCCCC1(C2CCCC2)Cc2cc(OCCCC(=O)O)c(Cl)c(Cl)c2C1=O (centres unmarked) [DCPIB]
effect on Ivermectin-induced cell death (4T1.2 cells): exacerbates Ivermectin killing

COc1cccc2c1C(=O)c1c(O)c3c(c(O)c1C2=O)C[C@@](O)(C(=O)CO)C[C@@H]3O[C@H]1C[C@H](N)[C@H](O)[C@H](C)O1 [DOX, doxorubicin]
CompuSyn CI values (4T1.2 cancer cells; DOX 1 + Ivermectin 2): .43
CompuSyn CI values (4T1.2 cancer cells; DOX 1 + Ivermectin 4): .61
CompuSyn CI values (4T1.2 cancer cells; DOX 2 + Ivermectin 2): .42
CompuSyn CI values (4T1.2 cancer cells; DOX 2 + Ivermectin 4): .56

c1ccc2c(c1)[I+]c1ccccc1-2 [DPI, Diphenyleneiodonium]
effect on Ivermectin-induced cell death (4T1.2 cells): transiently block Ivermectin-induced killing

C[C@H]1O[C@@H](O[C@H]2[C@@H](O)C[C@H](O[C@H]3[C@@H](O)C[C@H](O[C@H]4CC[C@@]5(C)[C@H](CC[C@@H]6[C@@H]5C[C@@H](O)[C@]5(C)[C@@H](C7=CC(=O)OC7)CC[C@]65O)C4)O[C@@H]3C)O[C@@H]2C)C[C@H](O)[C@@H]1O [Digoxin]
effect on Ivermectin-induced cell death (4T1.2 cells): demonstrated some protection

O=C(O)CN(CCN(CC(=O)O)CC(=O)O)CC(=O)O [EDTA]
effect on Ivermectin-induced cell death (4T1.2 cells): cell death can be suppressed

N[C@@H](CCC(=O)N[C@@H](CS)C(=O)NCC(=O)O)C(=O)O [GSH]
effect on Ivermectin-induced cell death (4T1.2 cells): completely failed to prevent, or even delay, Ivermectin-induced killing
blockade of Ivermectin-induced ROS by ROS scavengers [1]: less effective against Ivermectin-induced ROS

OO [H2O2]
CompuSyn CI values (4T1.2 cancer cells; H2O2 100 + Ivermectin 8): .46
CompuSyn CI values (4T1.2 cancer cells; H2O2 100 + Ivermectin 16): .39
CompuSyn CI values (4T1.2 cancer cells; H2O2 1000 + Ivermectin 8): .24
CompuSyn CI values (4T1.2 cancer cells; H2O2 1000 + Ivermectin 16): .20

CC(=O)N[C@@H](CS)C(=O)O [NAC]
effect on Ivermectin-induced cell death (4T1.2 cells): completely failed to prevent, or even delay, Ivermectin-induced killing
blockade of Ivermectin-induced ROS by ROS scavengers [1]: less effective against Ivermectin-induced ROS

CN1C(=O)C(Cc2c[nH]c3ccccc23)NC1=S (centres unmarked) [Necrostatin]
effect on Ivermectin-induced cell death (4T1.2 cells): demonstrated some protection

Nc1ncnc2c1ncn2[C@@H](C=O)O[C@@H](C=O)COP(=O)(O)OP(=O)(O)OP(=O)(O)O [OxATP]
effect on Ivermectin-induced cell death (4T1.2 cells): did not observe any protection

Cc1nc(N=Nc2ccc(S(=O)(=O)O)cc2S(=O)(=O)O)c(COP(=O)(O)O)c(C=O)c1O [PPADs]
effect on Ivermectin-induced cell death (4T1.2 cells): did not observe any protection

Nc1c(S(=O)(=O)[O-])cc(Nc2ccc(Cl)cc2)c2c1C(=O)c1ccccc1C2=O.[Na+] [PSB 069]
effect on Ivermectin-induced cell death (4T1.2 cells): Ivermectin-induced cytotoxicity was suppressed

CC(=O)O[C@H]1C(=O)[C@@]2(C)[C@H]([C@H](OC(=O)c3ccccc3)[C@]3(O)C[C@H](OC(=O)[C@H](O)[C@@H](NC(=O)c4ccccc4)c4ccccc4)C(C)=C1C3(C)C)[C@]1(OC(C)=O)CO[C@@H]1C[C@@H]2O [PTX, paclitaxel]
CompuSyn CI values (4T1.2 cancer cells; PTX 0.1 + Ivermectin 1): .35
CompuSyn CI values (4T1.2 cancer cells; PTX 0.1 + Ivermectin 2): .52
CompuSyn CI values (4T1.2 cancer cells; PTX 1 + Ivermectin 1): .30
CompuSyn CI values (4T1.2 cancer cells; PTX 1 + Ivermectin 2): .51

CCCN(CCC)S(=O)(=O)c1ccc(C(=O)O)cc1 [Probenecid]
effect on Ivermectin-induced cell death (4T1.2 cells): enhanced Ivermectin cytotoxicity

Cc1ccc(C(=O)Nc2ccc(S(=O)(=O)O)c3cc(S(=O)(=O)O)cc(S(=O)(=O)O)c23)cc1NC(=O)c1cccc(NC(=O)Nc2cccc(C(=O)Nc3cc(C(=O)Nc4ccc(S(=O)(=O)O)c5cc(S(=O)(=O)O)cc(S(=O)(=O)O)c45)ccc3C)c2)c1 [Suramin]
effect on Ivermectin-induced cell death (4T1.2 cells): Ivermectin killing was initially enhanced

CCO[C@@H]1OC(=O)C[C@@H]1NC(=O)[C@@H]1CCCN1C(=O)[C@@H](NC(=O)c1ccc(N)c(Cl)c1)C(C)(C)C [VX-765]
effect on Ivermectin-induced cell death (4T1.2 cells): demonstrated some protection

COC(=O)C[C@H](NC(=O)[C@H](C)NC(=O)[C@@H](NC(=O)OCc1ccccc1)C(C)C)C(=O)CF [Z-vad-fmk] (Cbz-Val-Ala-Asp(OMe)-CH2F)
effect on Ivermectin-induced cell death (4T1.2 cells): inhibited cell death very effectively

Apyrase
effect on Ivermectin-induced cell death (4T1.2 cells): Ivermectin killing was initially enhanced
